Test results reported in patent US20230017045A1, “PYRIDINE AND PYRIMIDINE CARBOXYLATE HERBICIDES AND METHODS OF USE THEREOF” (Dow AgroSciences LLC, priority 2017, published 2023).

test system: test plant species; assay: Post-emergent herbicidal activity test (greenhouse, foliar spray, visual growth reduction); type: in vivo; conditions: post-emergence, 336 h, ALOMY: blackgrass (Alopecurus myosuroides), 140 g ai/ha, 14 days after application, read-out: Visual Growth Reduction (%) 14 Days After Application, ALOMY
Outline: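 Plants grown in greenhouse (15 h photoperiod, 23-29° C day/22-28° C night) to first or second true leaf stage were sprayed overhead with compound in acetone/water/isopropanol/DMSO/crop oil/X-77 carrier at 187 L/ha. Injury was scored visually after 14 d on a 0-100% scale versus solvent-blank and untreated controls.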

`N#Cc1cc(C(F)(F)F)cc(Cl)c1-c1ccc(Cl)c(C(=O)O)n1` [F162, 3-Chloro-6-(2-chloro-6-cyano-4-(trifluoromethyl)phenyl)picolinic acid] and `COC(=O)c1nc(-c2ccc(C(C)=O)cc2Cl)ccc1Cl` [F26, methyl 6-(4-acetyl-2-chlorophenyl)-3-chloropicolinate] fall in the same range of pest or weed control at 140 g/ha: 0 to 29% for the first, 0 to 29% for the second.

same assay, conditions: post-emergence, 336 h, AMARE: redroot pigweed (Amaranthus retroflexus), 140 g ai/ha, 14 days after application, read-out: Visual Growth Reduction (%) 14 Days After Application, AMARE

First: N#Cc1cc(C(F)(F)F)cc(Cl)c1-c1ccc(Cl)c(C(=O)O)n1 [F162, 3-Chloro-6-(2-chloro-6-cyano-4-(trifluoromethyl)phenyl)picolinic acid]
Second: COC(=O)c1nc(-c2ccc(C(C)=O)cc2Cl)ccc1Cl [F26, methyl 6-(4-acetyl-2-chlorophenyl)-3-chloropicolinate]
The pest or weed control at 140 g/ha of the first is higher: 95 to 100% for the first, 0 to 29% for the second.

same assay, conditions: post-emergence, 336 h, AVEFA: wild oat (Avena fatua), 140 g ai/ha, 14 days after application, read-out: Visual Growth Reduction (%) 14 Days After Application, AVEFA

First: N#Cc1cc(C(F)(F)F)cc(Cl)c1-c1ccc(Cl)c(C(=O)O)n1 [F162, 3-Chloro-6-(2-chloro-6-cyano-4-(trifluoromethyl)phenyl)picolinic acid]
Second: COC(=O)c1nc(-c2ccc(C(C)=O)cc2Cl)ccc1Cl [F26, methyl 6-(4-acetyl-2-chlorophenyl)-3-chloropicolinate]
The pest or weed control at 140 g/ha of the first is higher: 30 to 44% for the first, 0 to 29% for the second.

same assay, conditions: post-emergence, 336 h, CHEAL: lambsquarters (Chenopodium album), 140 g ai/ha, 14 days after application, read-out: Visual Growth Reduction (%) 14 Days After Application, CHEAL

First: N#Cc1cc(C(F)(F)F)cc(Cl)c1-c1ccc(Cl)c(C(=O)O)n1 [F162, 3-Chloro-6-(2-chloro-6-cyano-4-(trifluoromethyl)phenyl)picolinic acid]
Second: COC(=O)c1nc(-c2ccc(C(C)=O)cc2Cl)ccc1Cl [F26, methyl 6-(4-acetyl-2-chlorophenyl)-3-chloropicolinate]
The pest or weed control at 140 g/ha of the first is higher: 95 to 100% for the first, 0 to 29% for the second.

same assay, conditions: post-emergence, 336 h, CIRAR: canada thistle (Cirsium arvense), 140 g ai/ha, 14 days after application, read-out: Visual Growth Reduction (%) 14 Days After Application, CIRAR

First: N#Cc1cc(C(F)(F)F)cc(Cl)c1-c1ccc(Cl)c(C(=O)O)n1 [F162, 3-Chloro-6-(2-chloro-6-cyano-4-(trifluoromethyl)phenyl)picolinic acid]
Second: COC(=O)c1nc(-c2ccc(C(C)=O)cc2Cl)ccc1Cl [F26, methyl 6-(4-acetyl-2-chlorophenyl)-3-chloropicolinate]
The pest or weed control at 140 g/ha of the first is higher: 85 to 94% for the first, 0 to 29% for the second.

same assay, conditions: post-emergence, 336 h, CYPES: yellow nutsedge (Cyperus esculentus), 140 g ai/ha, 14 days after application, read-out: Visual Growth Reduction (%) 14 Days After Application, CYPES

`N#Cc1cc(C(F)(F)F)cc(Cl)c1-c1ccc(Cl)c(C(=O)O)n1` [F162, 3-Chloro-6-(2-chloro-6-cyano-4-(trifluoromethyl)phenyl)picolinic acid] and `COC(=O)c1nc(-c2ccc(C(C)=O)cc2Cl)ccc1Cl` [F26, methyl 6-(4-acetyl-2-chlorophenyl)-3-chloropicolinate] fall in the same range of pest or weed control at 140 g/ha: 0 to 29% for the first, 0 to 29% for the second.

same assay, conditions: post-emergence, 336 h, DIGSA: crabgrass (Digitaria sanguinalis), 140 g ai/ha, 14 days after application, read-out: Visual Growth Reduction (%) 14 Days After Application, DIGSA

Compared with `N#Cc1cc(C(F)(F)F)cc(Cl)c1-c1ccc(Cl)c(C(=O)O)n1` [F162, 3-Chloro-6-(2-chloro-6-cyano-4-(trifluoromethyl)phenyl)picolinic acid], `COC(=O)c1nc(-c2ccc(C(C)=O)cc2Cl)ccc1Cl` [F26, methyl 6-(4-acetyl-2-chlorophenyl)-3-chloropicolinate] is lower in pest or weed control at 140 g/ha: 75 to 84% for the first, 0 to 29% for the second.

same assay, conditions: post-emergence, 336 h, ECHCG: barnyardgrass (Echinochloa crus-galli), 140 g ai/ha, 14 days after application, read-out: Visual Growth Reduction (%) 14 Days After Application, ECHCG

Compared with `N#Cc1cc(C(F)(F)F)cc(Cl)c1-c1ccc(Cl)c(C(=O)O)n1` [F162, 3-Chloro-6-(2-chloro-6-cyano-4-(trifluoromethyl)phenyl)picolinic acid], `COC(=O)c1nc(-c2ccc(C(C)=O)cc2Cl)ccc1Cl` [F26, methyl 6-(4-acetyl-2-chlorophenyl)-3-chloropicolinate] is lower in pest or weed control at 140 g/ha: 95 to 100% for the first, 0 to 29% for the second.

same assay, conditions: post-emergence, 336 h, IPOHE: ivy-leaf morning glory (Ipomoea hederacea), 140 g ai/ha, 14 days after application, read-out: Visual Growth Reduction (%) 14 Days After Application, IPOHE

First: N#Cc1cc(C(F)(F)F)cc(Cl)c1-c1ccc(Cl)c(C(=O)O)n1 [F162, 3-Chloro-6-(2-chloro-6-cyano-4-(trifluoromethyl)phenyl)picolinic acid]
Second: COC(=O)c1nc(-c2ccc(C(C)=O)cc2Cl)ccc1Cl [F26, methyl 6-(4-acetyl-2-chlorophenyl)-3-chloropicolinate]
The pest or weed control at 140 g/ha of the first is higher: 95 to 100% for the first, 0 to 29% for the second.

same assay, conditions: post-emergence, 336 h, KCHSC: kochia (Bassia scoparia), 140 g ai/ha, 14 days after application, read-out: Visual Growth Reduction (%) 14 Days After Application, KCHSC

First: N#Cc1cc(C(F)(F)F)cc(Cl)c1-c1ccc(Cl)c(C(=O)O)n1 [F162, 3-Chloro-6-(2-chloro-6-cyano-4-(trifluoromethyl)phenyl)picolinic acid]
Second: COC(=O)c1nc(-c2ccc(C(C)=O)cc2Cl)ccc1Cl [F26, methyl 6-(4-acetyl-2-chlorophenyl)-3-chloropicolinate]
The pest or weed control at 140 g/ha of the first is higher: 95 to 100% for the first, 0 to 29% for the second.

same assay, conditions: post-emergence, 336 h, ORYSA: rice (Oryza sativa), 140 g ai/ha, 14 days after application, read-out: Visual Growth Reduction (%) 14 Days After Application, ORYSA

`N#Cc1cc(C(F)(F)F)cc(Cl)c1-c1ccc(Cl)c(C(=O)O)n1` [F162, 3-Chloro-6-(2-chloro-6-cyano-4-(trifluoromethyl)phenyl)picolinic acid] and `COC(=O)c1nc(-c2ccc(C(C)=O)cc2Cl)ccc1Cl` [F26, methyl 6-(4-acetyl-2-chlorophenyl)-3-chloropicolinate] fall in the same range of pest or weed control at 140 g/ha: 0 to 29% for the first, 0 to 29% for the second.

same assay, conditions: post-emergence, 336 h, SETFA: giant foxtail (Setaria faberi), 140 g ai/ha, 14 days after application, read-out: Visual Growth Reduction (%) 14 Days After Application, SETFA

Compared with `N#Cc1cc(C(F)(F)F)cc(Cl)c1-c1ccc(Cl)c(C(=O)O)n1` [F162, 3-Chloro-6-(2-chloro-6-cyano-4-(trifluoromethyl)phenyl)picolinic acid], `COC(=O)c1nc(-c2ccc(C(C)=O)cc2Cl)ccc1Cl` [F26, methyl 6-(4-acetyl-2-chlorophenyl)-3-chloropicolinate] is lower in pest or weed control at 140 g/ha: 85 to 94% for the first, 0 to 29% for the second.

same assay, conditions: post-emergence, 336 h, SORVU: grain sorghum (Sorghum vulgare), 140 g ai/ha, 14 days after application, read-out: Visual Growth Reduction (%) 14 Days After Application, SORVU

Compared with `N#Cc1cc(C(F)(F)F)cc(Cl)c1-c1ccc(Cl)c(C(=O)O)n1` [F162, 3-Chloro-6-(2-chloro-6-cyano-4-(trifluoromethyl)phenyl)picolinic acid], `COC(=O)c1nc(-c2ccc(C(C)=O)cc2Cl)ccc1Cl` [F26, methyl 6-(4-acetyl-2-chlorophenyl)-3-chloropicolinate] is lower in pest or weed control at 140 g/ha: 60 to 74% for the first, 0 to 29% for the second.

same assay, conditions: post-emergence, 336 h, STEME: common chickweed (Stellaria media), 140 g ai/ha, 14 days after application, read-out: Visual Growth Reduction (%) 14 Days After Application, STEME

`N#Cc1cc(C(F)(F)F)cc(Cl)c1-c1ccc(Cl)c(C(=O)O)n1` [F162, 3-Chloro-6-(2-chloro-6-cyano-4-(trifluoromethyl)phenyl)picolinic acid] and `COC(=O)c1nc(-c2ccc(C(C)=O)cc2Cl)ccc1Cl` [F26, methyl 6-(4-acetyl-2-chlorophenyl)-3-chloropicolinate] fall in the same range of pest or weed control at 140 g/ha: 0 to 29% for the first, 0 to 29% for the second.

same assay, conditions: post-emergence, 336 h, TRZAS: wheat, spring (Triticum aestivum), 140 g ai/ha, 14 days after application, read-out: Visual Growth Reduction (%) 14 Days After Application, TRZAS

First: N#Cc1cc(C(F)(F)F)cc(Cl)c1-c1ccc(Cl)c(C(=O)O)n1 [F162, 3-Chloro-6-(2-chloro-6-cyano-4-(trifluoromethyl)phenyl)picolinic acid]
Second: COC(=O)c1nc(-c2ccc(C(C)=O)cc2Cl)ccc1Cl [F26, methyl 6-(4-acetyl-2-chlorophenyl)-3-chloropicolinate]
The pest or weed control at 140 g/ha of the first is higher: 45 to 59% for the first, 0 to 29% for the second.
